≈ marks a conversion by molar mass, not a printed value. Values belong to the compound of their own block, whether it stands above or below them.
Experiments:
Type in all cases: cell-based
[1] = tested on: N. gonorrhoeae 35/02; assay: MIC, N. gonorrhoeae drug-resistant strain; settings: Neisseria gonorrhoeae; drug-resistant strain 35/02
[2] = tested on: N. gonorrhoeae FA19; assay: MIC, N. gonorrhoeae drug-sensitive strain; settings: Neisseria gonorrhoeae, read-out: MIC N. gonorrhoeae FA 19
[3] = tested on: Acinetobacter Baumannii multidrug-resistant strain (MDR A.b. Isolate); assay: Disk diffusion assay, multidrug-resistant strain; set-up: key to diameter of the growth inhibition, MDR A.b. Isolate: A: no detectable inhibition; B: 6-10 mm; C: 11-15 mm; D: ≧16; settings: 2 μg of compound per disc, disc 6 mm in diameter; for zone of inhibition at 2 µg/disc: Acinetobacter baumannii, read-out: diameter of the growth inhibition, MDR A.b. Isolate
[4] = tested on: Acinetobacter Baumannii antibiotic susceptible strain (Sus. A.b. Isolate); assay: Disk diffusion assay, antibiotic susceptible strain; set-up: key to diameter of the growth inhibition, Sus. A.b. Isolate: A: no detectable inhibition; B: 6-10 mm; C: 11-15 mm; D: ≧16; settings: 2 μg of compound per disc, disc 6 mm in diameter; for zone of inhibition at 2 µg/disc: Acinetobacter baumannii, read-out: diameter of the growth inhibition, Sus. A.b. Isolate
[5] = tested on: E. coli W3110PA; assay: microbe, parasite or virus in culture; settings: for MIC: Escherichia coli, W3110PA, 22 h, read-out: MIC E. coli W3110PA; for MIC E. coli W3110PA: E. coli with lpxC of P. aeruginosa, 22 hours at 37° C., MTT
[6] = tested on: E. coli W3110RL; assay: microbe, parasite or virus in culture; settings: for MIC: Escherichia coli, W3110RL, 22 h, read-out: MIC E. coli W3110RL; for MIC E. coli W3110RL: E. coli with lpxC of R. leguminosarum, 22 hours at 37° C., MTT
[7] = tested on: E. coli W3110; assay: microbe, parasite or virus in culture; settings: for MIC: Escherichia coli, W3110, 22 h, read-out: MIC E. coli W3110
[8] = tested on: P. aeruginosa (PAO1); assay: MIC, P. aeruginosa; settings: for MIC: Pseudomonas aeruginosa, PAO1, 22 h, read-out: MIC P. aeruginosa (PAO1); for MIC P. aeruginosa (PAO1): 22 hours at 37° C., MTT

MIC [1]: 2 to 4 mg/L (≈ 5.12 to 10.2 µM) | MIC [2]: 0.1 to 1 mg/L (≈ 0.256 to 2.56 µM)
Compound: CC(C)(N)[C@H](NC(=O)c1ccc(C#CC#Cc2ccccc2N)cc1)C(=O)NO [CPD-065, (S)-N-(3-amino-1-(hydroxyamino)-3-methyl-1-oxobutan-2-yl)-4-((2-aminophenyl)buta-1,3-diynyl)benzamide]

Compound: O=C(O)c1cn(C2CC2)c2cc(N3CCNCC3)c(F)cc2c1=O [Ciprofloxacin]
diameter of the growth inhibition, MDR A.b. Isolate [3]: A | zone of inhibition at 2 µg/disc [4]: ≥ 16 mm

MIC [1]: 0.1 to 1 mg/L (≈ 0.234 to 2.34 µM) | MIC [2]: < 0.1 mg/L
Compound: C[C@@](O)(C(F)F)[C@H](NC(=O)c1ccc(C#CC#Cc2ccccc2N)cc1)C(=O)NO [CPD-067, 4-((2-aminophenyl)buta-1,3-diynyl)-N-((2S,3S)-4,4-difluoro-3-hydroxy-1-(hydroxyamino)-3-methyl-1-oxobutan-2-yl)benzamide]
zone of inhibition at 2 µg/disc [3]: 6 to 10 mm | zone of inhibition at 2 µg/disc [4]: 6 to 10 mm

Compound: C[C@@H](O)[C@H](NC(=O)c1ccc(C#Cc2ccc(CN3CCOCC3)cc2)cc1)C(=O)NO [drawing 321]
MIC [1]: 8 mg/L (≈ 18.3 µM) | MIC [2]: 8 mg/L (≈ 18.3 µM)

Compound: C[C@@H](O)[C@H]1C(=O)N2C(C(=O)O)=C(SCCN=CN)C[C@H]12 [Imipenem]
diameter of the growth inhibition, MDR A.b. Isolate [3]: A | zone of inhibition at 2 µg/disc [4]: ≥ 16 mm

Compound: CN(C)[C@@H]1C(O)=C(C(N)=O)C(=O)[C@@]2(O)C(O)=C3C(=O)c4c(O)cccc4[C@@](C)(O)[C@H]3C[C@@H]12 [Tetracycline]
diameter of the growth inhibition, MDR A.b. Isolate [3]: A | zone of inhibition at 2 µg/disc [4]: 6 to 10 mm

Compound: O=C(N[C@H](CO)[C@H](O)c1ccc([N+](=O)[O-])cc1)C(Cl)Cl [Chloramphenicol]
diameter of the growth inhibition, MDR A.b. Isolate [3]: A | zone of inhibition at 2 µg/disc [4]: 6 to 10 mm

Compound: CC(C)(O)[C@H](NC(=O)c1ccc(C#CC#Cc2ccc(N)cc2)cc1)C(=O)NO [CPD-037, (2S)-2-({4′-[4′-(4′-aminophenyl)buta-1′,3′-diyn-1-yl]phenyl}formamido)-N,3′-dihydroxy-3′-methylbutanamide]
MIC [5]: < 1 mg/L | zone of inhibition at 2 µg/disc [3]: 6 to 10 mm | MIC [6]: 1 to 10 mg/L (≈ 2.55 to 25.5 µM) | MIC [7]: < 1 mg/L | MIC [8]: < 1 mg/L | zone of inhibition at 2 µg/disc [4]: 11 to 15 mm

Compound: Polymyxin B
diameter of the growth inhibition, MDR A.b. Isolate [3]: B (6-10 mm) | diameter of the growth inhibition, Sus. A.b. Isolate [4]: B (6-10 mm)

Compound: CC1(C)S[C@@H]2[C@H](NC(=O)C(C(=O)O)c3ccccc3)C(=O)N2[C@H]1C(=O)O (stereo partly drawn) [Carbenicillin]
diameter of the growth inhibition, MDR A.b. Isolate [3]: A | diameter of the growth inhibition, Sus. A.b. Isolate [4]: A

MIC [1]: 2 to 4 mg/L (≈ 5.11 to 10.2 µM) | MIC [2]: 0.1 to 1 mg/L (≈ 0.255 to 2.55 µM)
Compound: CC(C)(O)[C@H](NC(=O)c1ccc(C#CC#Cc2ccccc2N)cc1)C(=O)NO [CPD-066, (S)-4-((2-aminophenyl)buta-1,3-diynyl)-N-(3-hydroxy-1-(hydroxyamino)-3-methyl-1-oxobutan-2-yl)benzamide]

Compound: CSCC[C@H](NC(=O)c1ccc(C#CC#Cc2ccc(N)cc2)cc1)C(=O)NO [CPD-028, (2S)-2-({4′-(4′-(4′-aminophenyl)buta-1′,3′-diyn-1-yl]phenyl}formamido)-N-hydroxy-4-(methylsulfanyl)butanamide]
MIC E. coli W3110PA [5]: E (>100 μg/mL) | MIC E. coli W3110RL [6]: E (>100 μg/mL) | MIC E. coli W3110 [7]: A (key: A: <1 μg/mL; B: 1-10 μg/mL; C: 11-50 μg/mL; D: 51-100 μg/mL; E: >100 μg/mL) | MIC P. aeruginosa (PAO1) [8]: E (>100 μg/mL)

Compound: Nc1ccc(OCC#Cc2ccc(C(=O)N[C@@H]3CCN(O)C3=O)cc2)cc1 [CPD-060, (R)-4-(3-(4-aminophenoxy)prop-1-ynyl)-N-(1-hydroxy-2-oxopyrrolidin-3-yl)benzamide]
MIC [5]: 11 to 50 mg/L (≈ 30.1 to 137 µM) | MIC [6]: 51 to 100 mg/L (≈ 140 to 274 µM) | MIC [7]: 1 to 10 mg/L (≈ 2.74 to 27.4 µM) | MIC [8]: 11 to 50 mg/L (≈ 30.1 to 137 µM)

Compound: C[C@@H](O)[C@H](NC(=O)c1ccc(C#CC#CCN(C)C)cc1)C(=O)NO [CPD-007, 4-(5-(dimethylamino)penta-1,3-diynyl)-N-((2S,3R)-3-hydroxy-1-(hydroxyamino)-1-oxobutan-2-yl)benzamide]
MIC [5]: 1 to 10 mg/L (≈ 2.91 to 29.1 µM) | MIC [6]: > 100 mg/L | MIC [7]: 1 to 10 mg/L (≈ 2.91 to 29.1 µM) | MIC [8]: 1 to 10 mg/L (≈ 2.91 to 29.1 µM)

Compound: C[C@@H](O)[C@H](NC(=O)c1ccc(C#CC#Cc2ccccc2)cc1)C(=O)NO [CPD-009, N-((2S,3R)-3-hydroxy-1-(hydroxyamino)-1-oxobutan-2-yl)-4-(phenylbuta-1,3-diynyl)benzamide]
MIC [5]: < 1 mg/L | MIC [6]: 1 to 10 mg/L (≈ 2.76 to 27.6 µM) | MIC [7]: < 1 mg/L | MIC [8]: < 1 mg/L

Compound: C[C@@H](O)[C@H](NC(=O)c1ccc(C#CC#Cc2ccc(N)cc2)cc1)C(=O)O [CPD-046, (2S,3R)-2-(4-((4-aminophenyl)buta-1,3-diynyl)benzamido)-3-hydroxybutanoic acid]
MIC [5]: 51 to 100 mg/L (≈ 141 to 276 µM) | MIC [6]: 51 to 100 mg/L (≈ 141 to 276 µM) | MIC [7]: 1 to 10 mg/L (≈ 2.76 to 27.6 µM) | MIC [8]: 51 to 100 mg/L (≈ 141 to 276 µM)

Compound: Nc1ccc(C#CC#Cc2ccc(C(=O)N[C@@H](Cc3c[nH]cn3)C(=O)NO)cc2)cc1 [CPD-014, (2S)-2-({4′-[4′-(4′-aminophenyl)buta-1′,3′-diyn-1′-yl]phenyl}formamido)-N-hydroxy-3-(1′H-imidazol-4′-yl)propanamide]
MIC E. coli W3110PA [5]: B (1-10 μg/mL) | MIC E. coli W3110RL [6]: E (>100 μg/mL) | MIC E. coli W3110 [7]: A (key: A: <1 μg/mL; B: 1-10 μg/mL; C: 11-50 μg/mL; D: 51-100 μg/mL; E: >100 μg/mL) | MIC P. aeruginosa (PAO1) [8]: B (1-10 μg/mL)

Compound: N=C(N)NCCC[C@H](NC(=O)c1ccc(C#CC#Cc2ccc(N)cc2)cc1)C(=O)NO [CPD-034, (2S)-2-({4′-[4′-(4′-aminophenyl)buta-1′,3′-diyn-1-yl]phenyl}formamido)-5′-carbamimidamido-N-hydroxypentanamide]
MIC E. coli W3110PA [5]: D (51-100 μg/mL) | MIC E. coli W3110RL [6]: D (51-100 μg/mL) | MIC E. coli W3110 [7]: C (key: A: <1 μg/mL; B: 1-10 μg/mL; C: 11-50 μg/mL; D: 51-100 μg/mL; E: >100 μg/mL) | MIC P. aeruginosa (PAO1) [8]: C (11-50 μg/mL)

Compound: C[C@@H](O)[C@H](NC(=O)c1ccc(C#CC#Cc2ccc(N)cc2)cc1)C(=O)NN [CPD-045, 4-((4-aminophenyl)buta-1,3-diynyl)-N-((2S,3R)-1-hydrazinyl-3-hydroxy-1-oxobutan-2-yl)benzamide]
MIC [5]: 51 to 100 mg/L (≈ 135 to 266 µM) | MIC [6]: 51 to 100 mg/L (≈ 135 to 266 µM) | MIC [7]: 1 to 10 mg/L (≈ 2.66 to 26.6 µM) | MIC [8]: 51 to 100 mg/L (≈ 135 to 266 µM)

Compound: C[C@](O)(c1ccc(O)cc1)[C@H](NC(=O)c1ccc(C#CC#Cc2ccc(N)cc2)cc1)C(=O)NO [CPD-051, 4-((4-aminophenyl)buta-1,3-diynyl)-N-((2S)-3-hydroxy-1-(hydroxyamino)-3-(4-hydroxyphenyl)-1-oxobutan-2-yl)benzamide]
MIC [5]: < 1 mg/L | diameter of the growth inhibition, MDR A.b. Isolate [3]: A | MIC [6]: 51 to 100 mg/L (≈ 109 to 213 µM) | MIC [7]: < 1 mg/L | MIC [8]: < 1 mg/L | diameter of the growth inhibition, Sus. A.b. Isolate [4]: A

Compound: Nc1ccc(C#CC#Cc2ccc(C(=O)N[C@@H](Cc3c[nH]c4ccccc34)C(=O)NO)cc2)cc1 [CPD-029, (2S)-2-({4′-[4′-(4′-aminophenyl)buta-1′,3′-diyn-1′-yl]phenyl}formamido)-N-hydroxy-3-(1′H-indol-3′-yl)propanamide]
MIC E. coli W3110PA [5]: E (>100 μg/mL) | MIC E. coli W3110RL [6]: E (>100 μg/mL) | MIC E. coli W3110 [7]: B (key: A: <1 μg/mL; B: 1-10 μg/mL; C: 11-50 μg/mL; D: 51-100 μg/mL; E: >100 μg/mL) | MIC P. aeruginosa (PAO1) [8]: E (>100 μg/mL)

Compound: C[C@@H](O)[C@H](NC(=O)c1ccc(C#CC#Cc2cccc(N)c2)cc1)C(=O)NO [CPD-012, (2S,3R)-2-{4′-[(3″-aminophenyl)buta-1′,3′-diynyl]benzamido}-1,3-dihydroxybutanamide]
MIC E. coli W3110PA [5]: A (<1 μg/mL) | diameter of the growth inhibition, MDR A.b. Isolate [3]: A | MIC E. coli W3110RL [6]: B (1-10 μg/mL) | MIC E. coli W3110 [7]: A (key: A: <1 μg/mL; B: 1-10 μg/mL; C: 11-50 μg/mL; D: 51-100 μg/mL; E: >100 μg/mL) | MIC P. aeruginosa (PAO1) [8]: A (<1 μg/mL) | diameter of the growth inhibition, Sus. A.b. Isolate [4]: A

Compound: C[C@@](O)(C(F)F)[C@H](NC(=O)c1ccc(C#CC#Cc2ccc(N)cc2)cc1)C(=O)NO [CPD-058, 4-((4-aminophenyl)buta-1,3-diynyl)-N-((2S,3S)-4,4-difluoro-3-hydroxy-1-(hydroxyamino)-3-methyl-1-oxobutan-2-yl)benzamide]
MIC [5]: < 1 mg/L | zone of inhibition at 2 µg/disc [3]: 11 to 15 mm | MIC [6]: < 1 mg/L | MIC [7]: < 1 mg/L | MIC [8]: < 1 mg/L | zone of inhibition at 2 µg/disc [4]: 11 to 15 mm

Compound: Nc1ccc(C#CC#Cc2ccc(C(=O)N[C@@H](CO)C(=O)NO)cc2)cc1 [CPD-027, (2S)-2-({4′-[4′-(4′-aminophenyl)buta-1′,3′-diyn-1′-yl]phenyl}formamido)-N,3-dihydroxypropanamide]
MIC E. coli W3110PA [5]: B (1-10 μg/mL) | MIC E. coli W3110RL [6]: C (11-50 μg/mL) | MIC E. coli W3110 [7]: A (key: A: <1 μg/mL; B: 1-10 μg/mL; C: 11-50 μg/mL; D: 51-100 μg/mL; E: >100 μg/mL) | MIC P. aeruginosa (PAO1) [8]: B (1-10 μg/mL)

Compound: C[C@@H](O)[C@@H](NC(=O)c1ccc(C#CC#Cc2ccc(N)cc2)cc1)C(=O)NO [CPD-054, (2R,3R)-2-{4′-[(4″-aminophenyl)buta-1′,3′-diynyl]benzamido}-1,3-dihydroxybutanamide]
MIC [5]: 11 to 50 mg/L (≈ 29.1 to 132 µM) | MIC [6]: 51 to 100 mg/L (≈ 135 to 265 µM) | MIC [7]: 1 to 10 mg/L (≈ 2.65 to 26.5 µM) | MIC [8]: 11 to 50 mg/L (≈ 29.1 to 132 µM)
